Assay results from ChEMBL document CHEMBL5360581, “Discovery of a novel dual functional phenylpyrazole-styryl hybrid that induces apoptotic and autophagic cell death in bladder cancer cells” (Eur J Med Chem, 2023).
The source made the active and inactive calls. No cut-off for these calls is given here.

System: not listed separately
Assay: Selectivity index, ratio of IC50 for cytotoxicity against human NHDF cells to IC50 for cytotoxicity against human HT-1080 cells
Details: not given
In the case of `COc1cc(/C=C/c2cc(-c3cc(Cl)ccc3O)n(-c3ccccc3)n2)cc(OC)c1OC`, the “Ratio IC50” value is reported as 3.9.
For `COc1cccc(/C=C/c2cc(-c3ccccc3O)n(-c3ccccc3)n2)c1`, the “Ratio IC50” value was >2.2.
For `Oc1ccccc1-c1cc(/C=C/c2ccc(Cl)c(Cl)c2)nn1-c1ccccc1`, the “Ratio IC50” value was 2.
With `Oc1ccc(Cl)cc1-c1cc(/C=C/c2cccs2)nn1-c1ccccc1` the “Ratio IC50” value was 2.

System: EJ-28
Assay: Antiproliferative activity against human EJ-28 cells assessed as reduction in cell viability at 20 uM measured for 72 hrs by MTT assay
Format: functional, cell-based
Details: not given
For `COc1cc(/C=C/c2cc(-c3cc(Cl)ccc3O)n(-c3ccccc3)n2)cc(OC)c1OC`, the Activity was “Active”.
With `COc1cccc(/C=C/c2cc(-c3ccccc3O)n(-c3ccccc3)n2)c1` the Activity was “Active”.
With `Oc1ccccc1-c1cc(/C=C/c2ccc(Cl)c(Cl)c2)nn1-c1ccccc1` the Activity was “Active”.
With `Oc1ccc(Cl)cc1-c1cc(/C=C/c2cccs2)nn1-c1ccccc1` the Activity was “Active”.

System: HT-1080
Assay: Cytotoxicity against human HT-1080 cells assessed inhibition of cell growth incubated for 72 hrs by MTT assay
Format: functional, cell-based
Details: HT-1080, 72 h
`COc1cc(/C=C/c2cc(-c3cc(Cl)ccc3O)n(-c3ccccc3)n2)cc(OC)c1OC` showed an IC50 of 8.9 µM.
`COc1cccc(/C=C/c2cc(-c3ccccc3O)n(-c3ccccc3)n2)c1` showed an IC50 of 20 µM.
`Oc1ccccc1-c1cc(/C=C/c2ccc(Cl)c(Cl)c2)nn1-c1ccccc1` showed an IC50 of 22.2 µM.
Compound `Oc1ccc(Cl)cc1-c1cc(/C=C/c2cccs2)nn1-c1ccccc1` has an IC50 of 19.6 µM.

System: EJ-28
Assay: Cytotoxicity against human EJ-28 cells assessed inhibition of cell growth incubated for 72 hrs by MTT assay
Format: functional, cell-based
Details: EJ-28, 72 h
`COc1cc(/C=C/c2cc(-c3cc(Cl)ccc3O)n(-c3ccccc3)n2)cc(OC)c1OC` showed an IC50 of 10.1 µM.
Work on `COc1cccc(/C=C/c2cc(-c3ccccc3O)n(-c3ccccc3)n2)c1` yielded an IC50 of 14.3 µM.
Work on `Oc1ccccc1-c1cc(/C=C/c2ccc(Cl)c(Cl)c2)nn1-c1ccccc1` yielded an IC50 of 15.9 µM.
`Oc1ccc(Cl)cc1-c1cc(/C=C/c2cccs2)nn1-c1ccccc1` showed an IC50 of 11.6 µM.

System: not listed separately
Assay: Selectivity index, ratio of IC50 for cytotoxicity against human NHDF cells to IC50 for cytotoxicity against human A549 cells
Format: toxicity, cell-based
Details: NHDF cells and A549 cells, read-out: Ratio IC50
With `COc1cc(/C=C/c2cc(-c3cc(Cl)ccc3O)n(-c3ccccc3)n2)cc(OC)c1OC` the selectivity ratio was 3.9.
In the case of `COc1cccc(/C=C/c2cc(-c3ccccc3O)n(-c3ccccc3)n2)c1`, the selectivity ratio is reported as > 2.2.
For `Oc1ccccc1-c1cc(/C=C/c2ccc(Cl)c(Cl)c2)nn1-c1ccccc1`, the selectivity ratio was 2.
In the case of `Oc1ccc(Cl)cc1-c1cc(/C=C/c2cccs2)nn1-c1ccccc1`, the selectivity ratio is reported as 2.

System: A549
Assay: Antiproliferative activity against human A549 cells assessed as reduction in cell viability at 20 uM measured for 72 hrs by MTT assay
Format: functional, cell-based
Details: not given
For `COc1cc(/C=C/c2cc(-c3cc(Cl)ccc3O)n(-c3ccccc3)n2)cc(OC)c1OC`, the Activity was “Active”.
For `COc1cccc(/C=C/c2cc(-c3ccccc3O)n(-c3ccccc3)n2)c1`, the Activity was “Active”.
In the case of `Oc1ccccc1-c1cc(/C=C/c2ccc(Cl)c(Cl)c2)nn1-c1ccccc1`, the Activity is reported as “Active”.
In the case of `Oc1ccc(Cl)cc1-c1cc(/C=C/c2cccs2)nn1-c1ccccc1`, the Activity is reported as “Active”.

System: SW-620
Assay: Antiproliferative activity against human SW620 cells assessed as reduction in cell viability at 20 uM measured for 72 hrs by MTT assay
Format: functional, cell-based
Details: not given
With `COc1cc(/C=C/c2cc(-c3cc(Cl)ccc3O)n(-c3ccccc3)n2)cc(OC)c1OC` the Activity was “Active”.
For `COc1cccc(/C=C/c2cc(-c3ccccc3O)n(-c3ccccc3)n2)c1`, the Activity was “Active”.
In the case of `Oc1ccccc1-c1cc(/C=C/c2ccc(Cl)c(Cl)c2)nn1-c1ccccc1`, the Activity is reported as “Active”.
In the case of `Oc1ccc(Cl)cc1-c1cc(/C=C/c2cccs2)nn1-c1ccccc1`, the Activity is reported as “Active”.

System: not listed separately
Assay: Selectivity index, ratio of IC50 for cytotoxicity against human NHDF cells to IC50 for cytotoxicity against human EJ-28 cells
Details: not given
In the case of `COc1cc(/C=C/c2cc(-c3cc(Cl)ccc3O)n(-c3ccccc3)n2)cc(OC)c1OC`, the “Ratio IC50” value is reported as 3.9.
For `COc1cccc(/C=C/c2cc(-c3ccccc3O)n(-c3ccccc3)n2)c1`, the “Ratio IC50” value was >2.2.
In the case of `Oc1ccccc1-c1cc(/C=C/c2ccc(Cl)c(Cl)c2)nn1-c1ccccc1`, the “Ratio IC50” value is reported as 2.
In the case of `Oc1ccc(Cl)cc1-c1cc(/C=C/c2cccs2)nn1-c1ccccc1`, the “Ratio IC50” value is reported as 2.

System: not listed separately
Assay: Selectivity index, ratio of IC50 for cytotoxicity against human NHDF cells to IC50 for cytotoxicity against human SW620 cells
Details: not given
With `COc1cc(/C=C/c2cc(-c3cc(Cl)ccc3O)n(-c3ccccc3)n2)cc(OC)c1OC` the “Ratio IC50” value was 3.9.
For `COc1cccc(/C=C/c2cc(-c3ccccc3O)n(-c3ccccc3)n2)c1`, the “Ratio IC50” value was >2.2.
With `Oc1ccccc1-c1cc(/C=C/c2ccc(Cl)c(Cl)c2)nn1-c1ccccc1` the “Ratio IC50” value was 2.
For `Oc1ccc(Cl)cc1-c1cc(/C=C/c2cccs2)nn1-c1ccccc1`, the “Ratio IC50” value was 2.

System: MCF7
Assay: Antiproliferative activity against human MCF7 cells assessed as reduction in cell viability at 20 uM measured for 72 hrs by MTT assay
Format: functional, cell-based
Details: not given
In the case of `COc1cc(/C=C/c2cc(-c3cc(Cl)ccc3O)n(-c3ccccc3)n2)cc(OC)c1OC`, the Activity is reported as “Active”.
For `COc1cccc(/C=C/c2cc(-c3ccccc3O)n(-c3ccccc3)n2)c1`, the Activity was “Active”.
In the case of `Oc1ccccc1-c1cc(/C=C/c2ccc(Cl)c(Cl)c2)nn1-c1ccccc1`, the Activity is reported as “Active”.
For `Oc1ccc(Cl)cc1-c1cc(/C=C/c2cccs2)nn1-c1ccccc1`, the Activity was “Active”.

System: HT-1080
Assay: Antiproliferative activity against human HT-1080 cells assessed as reduction in cell viability at 20 uM measured for 72 hrs by MTT assay
Format: functional, cell-based
Details: not given
In the case of `COc1cc(/C=C/c2cc(-c3cc(Cl)ccc3O)n(-c3ccccc3)n2)cc(OC)c1OC`, the Activity is reported as “Active”.
For `COc1cccc(/C=C/c2cc(-c3ccccc3O)n(-c3ccccc3)n2)c1`, the Activity was “Active”.
With `Oc1ccccc1-c1cc(/C=C/c2ccc(Cl)c(Cl)c2)nn1-c1ccccc1` the Activity was “Active”.
For `Oc1ccc(Cl)cc1-c1cc(/C=C/c2cccs2)nn1-c1ccccc1`, the Activity was “Active”.

System: A549
Assay: Cytotoxicity against human A549 cells assessed inhibition of cell growth incubated for 72 hrs by MTT assay
Format: functional, cell-based
Details: A549, 72 h
Work on `COc1cc(/C=C/c2cc(-c3cc(Cl)ccc3O)n(-c3ccccc3)n2)cc(OC)c1OC` yielded an IC50 of 9.4 µM.
For `COc1cccc(/C=C/c2cc(-c3ccccc3O)n(-c3ccccc3)n2)c1`, the IC50 was 22.8 µM.
Compound `Oc1ccccc1-c1cc(/C=C/c2ccc(Cl)c(Cl)c2)nn1-c1ccccc1` has an IC50 of 21.5 µM.
For `Oc1ccc(Cl)cc1-c1cc(/C=C/c2cccs2)nn1-c1ccccc1`, the IC50 was 17.1 µM.

System: not listed separately
Assay: Selectivity index, ratio of IC50 for cytotoxicity against human NHDF cells to IC50 for cytotoxicity against human MCF7 cells
Format: toxicity, cell-based
Details: NHDF cells and MCF7 cells, read-out: Ratio IC50
With `COc1cc(/C=C/c2cc(-c3cc(Cl)ccc3O)n(-c3ccccc3)n2)cc(OC)c1OC` the selectivity ratio was 3.9.
For `COc1cccc(/C=C/c2cc(-c3ccccc3O)n(-c3ccccc3)n2)c1`, the selectivity ratio was > 2.2.
Compound `Oc1ccccc1-c1cc(/C=C/c2ccc(Cl)c(Cl)c2)nn1-c1ccccc1` has a selectivity ratio of 2.
In the case of `Oc1ccc(Cl)cc1-c1cc(/C=C/c2cccs2)nn1-c1ccccc1`, the selectivity ratio is reported as 2.

System: SW-620
Assay: Cytotoxicity against human SW620 cells assessed inhibition of cell growth incubated for 72 hrs by MTT assay
Format: functional, cell-based
Details: SW-620, 72 h
Work on `COc1cc(/C=C/c2cc(-c3cc(Cl)ccc3O)n(-c3ccccc3)n2)cc(OC)c1OC` yielded an IC50 of 4.4 µM.
With `COc1cccc(/C=C/c2cc(-c3ccccc3O)n(-c3ccccc3)n2)c1` the IC50 was 22.1 µM.
With `Oc1ccccc1-c1cc(/C=C/c2ccc(Cl)c(Cl)c2)nn1-c1ccccc1` the IC50 was 18.6 µM.
In the case of `Oc1ccc(Cl)cc1-c1cc(/C=C/c2cccs2)nn1-c1ccccc1`, the IC50 is reported as 19 µM.

System: not listed separately
Assay: Cytotoxicity against human NHDF cells assessed inhibition of cell growth incubated for 72 hrs by MTT assay
Format: toxicity, cell-based
Details: not given
With `COc1cc(/C=C/c2cc(-c3cc(Cl)ccc3O)n(-c3ccccc3)n2)cc(OC)c1OC` the IC50 at 72 h was 39.6 µM.
In the case of `COc1cccc(/C=C/c2cc(-c3ccccc3O)n(-c3ccccc3)n2)c1`, the IC50 at 72 h is reported as > 50 µM.
Work on `Oc1ccccc1-c1cc(/C=C/c2ccc(Cl)c(Cl)c2)nn1-c1ccccc1` yielded an IC50 at 72 h of 43.5 µM.
Compound `Oc1ccc(Cl)cc1-c1cc(/C=C/c2cccs2)nn1-c1ccccc1` has an IC50 at 72 h of 39.6 µM.

System: MCF7
Assay: Cytotoxicity against human MCF7 cells assessed inhibition of cell growth incubated for 72 hrs by MTT assay
Format: functional, cell-based
Details: MCF7, 72 h
With `COc1cc(/C=C/c2cc(-c3cc(Cl)ccc3O)n(-c3ccccc3)n2)cc(OC)c1OC` the IC50 was 5.9 µM.
`COc1cccc(/C=C/c2cc(-c3ccccc3O)n(-c3ccccc3)n2)c1` showed an IC50 of 16.2 µM.
`Oc1ccccc1-c1cc(/C=C/c2ccc(Cl)c(Cl)c2)nn1-c1ccccc1` showed an IC50 of 18.1 µM.
With `Oc1ccc(Cl)cc1-c1cc(/C=C/c2cccs2)nn1-c1ccccc1` the IC50 was 5.5 µM.
